Results on three molecules are retold here after patent US20050187208A1 (priority 2004, published 2005).

For data set [1], the system named is cannabinoid receptors. The data set is described as follows: Mouse tetrad model, agonistic effect (hot plate, hypothermia, catalepsy, sedation). The data set is classed as in vivo. The arrangement: key to Agonistic effect A: Hot-Plate test: % MPE = (PT−B)/(PC−B)×100; key to Agonistic effect D: Sedation: % sedation = mean score (0-3)/3×100; Agonistic effect B: Hypothermia: unit not given here. Particulars: 5 mg/kg i.v., male NMRI mice; for Agonistic effect A: Hot-Plate test: 15 minutes after injection; for Agonistic effect B: Hypothermia / Agonistic effect C: Catalepsy / Agonistic effect D: Sedation: 20 minutes after injection. From the text: (§1) Substances with affinity for cannabinoid receptors are known to produce a wide range of pharmacological effects. It is also known that intravenous administration of a substance with affinity for cannabinoid receptors in mice produces analgesia, hypothermia, sedation and catalepsy. Individually, none of these effects can be considered as proof that a tested substance has affinity for cannabinoid-receptors, since all of these effects are common for various classes of centrally active agents. However, substances, which show all of these effects, i.e. substances that are active in this so-called tetrad model are considered to have affinity for the cannabinoid receptors. It has further been shown that cannabinoid receptor antagonists are higly effective in blocking the effects of a cannabinoid agonist in the mouse tetrad model.
(§2) The tetrad model is described, for example, in the publication of A. C. Howlett et al, International Union of Pharmacology XXVII. Classification of Cannabinoid Receptors, Pharmacol Rev 54, 161-202, 2002 and David R. Compton et al., “In-vivo Characterization of a Specific Cannabinoid Receptor Antagonist (SR141716A): Inhibition of Tetrahydrocannbinol-induced Responses and Apparent Agonist Activity”, J. Pharmacol. Exp. Ther. 277, 2, 586-594, 1996. The corresponding parts of the description are hereby incorporated by reference.
(§3) Male NMRI mice with a weight of 20-30 g (Harlan, Barcelona, Spain) are used in all of the following experiments.
(§4) Before testing in the behavioral procedures given below, mice are acclimatized to the experimental setting. Pre-Treatment control values are determined for analgesia hot plate latency (in seconds), rectal temperature, sedation and catalepsy.
(§5) In order to determine the agonistic activty of the substance to be tested, the mice are injected intravenously with the substance to be tested or the vehicle alone. 15 minutes after injection, latency in hot plate analgesia is measured. Rectal temperature, sedation and catalepsy are measured 20 minutes after injection.
(§6) The hot plate analgesia is determined according to the method described in Woolfe D. et al. “The evaluation of analgesic action of pethidine hydrochloride (Demerol)”, J. Pharmacol. Exp. Ther. 80, 300-307, 1944. The respective description is hereby incorporated by reference and forms part of the present disclosure.
(§7) The mice are placed on a hot plate (Harvard Analgesimeter) at 55±0.5° C. until they show a painful sensation by licking their paws or jumping and the time for these sensations to occur is recorded. This reading is considered the basal value (B). The maximum time limit the mice are allowed to remain on the hot plate in absence of any painful response is 40 seconds in order to prevent skin damage. This period is called the cut-off time (PC).
(§8) Fifteen minuts after the administration of the substance to be tested, the mice are again placed on the hot plate and the afore described procedure is repeated. This period is called the post-treatment reading (PT).
(§9) The degree of analgesia is calculated from the formula: % MPE of Analgesia=(PT−B)/(PC−B)×100 • MPE Maximum possible effect. Determination of Sedation and Ataxia
(§10) Sedation and ataxia is determined according to the method described in Desmet L. K. C. et al. “Anticonvulsive properties of.Cinarizine and Flunarizine in Rats and Mice”, Arzneim. -Forsch. (Frug Res) 25, 9, 1975. The respective description is hereby incorporated by reference and forms part of the present disclosure.
The chosen scoring system is • 0: no ataxia; • 1: doubful; • 2: obvious calmness and quiet; • 3 pronounced ataxia; prior to as well as after treatment.
The percentage of sedation is determined according to the formula: % of sedation=arithmetic mean/3×100 Hypothermia: […]
In general terms: Hot-plate and tail-flick tests time the reaction to a heat stimulus.

For data set [2], the system named is cannabinoid receptors. The data set is described as follows: Mouse tetrad model, antagonistic effect against Win 55212-2. The following applies: 5 mg/kg i.v. prior to Win 55212-2 1.25 mg/kg i.v.; male NMRI mice. The data set is classed as in vivo. The arrangement: unit not given here.
Description: as §1, §2, §3, §4, §5
In order to determine the antagonistic activity the identical procedure is used as for the determination of the agonistic effects, but with the difference that the substance to be evaluated for its antagonistic activity is injectected 5 minutes before the intravenous injection of 1.25 mg/kg Win-55,212 a known cannabinoid-receptor agonist.
as §6, §7, §8, §9, §10
The chosen scoring system is • 0: no ataxia; • 1: doubful; • 2: obvious calmness and quiet; • 3 pronounced ataxia; prior to as well as after treatment. […]

The target in data set [3] is T1, transfected human CB1 receptor (Homo sapiens, UniProt P21554).
T1 construct: purchased Receptor Biology, Inc
T1 sequence (P21554 whole entry): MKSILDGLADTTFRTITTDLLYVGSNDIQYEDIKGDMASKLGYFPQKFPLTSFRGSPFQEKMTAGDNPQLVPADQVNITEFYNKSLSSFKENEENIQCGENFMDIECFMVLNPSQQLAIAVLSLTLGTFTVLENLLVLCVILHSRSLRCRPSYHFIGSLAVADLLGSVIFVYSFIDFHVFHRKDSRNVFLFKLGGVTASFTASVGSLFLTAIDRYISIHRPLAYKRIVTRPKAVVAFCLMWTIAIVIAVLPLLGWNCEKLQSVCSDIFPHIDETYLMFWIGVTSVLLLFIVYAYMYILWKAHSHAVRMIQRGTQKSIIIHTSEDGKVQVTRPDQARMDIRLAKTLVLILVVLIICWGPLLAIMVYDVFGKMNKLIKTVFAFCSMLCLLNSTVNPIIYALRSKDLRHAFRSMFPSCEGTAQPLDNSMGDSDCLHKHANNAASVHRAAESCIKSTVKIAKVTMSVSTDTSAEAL
The data set is described as follows: In-vitro determination of affinity to CB1 receptor, radioligand [^3H]-CP55940. The following applies: for inhibition at 1 µM: read-out: CB1 Receptor % Inhibition 10^−6 M. The data set is classed as binding. Here is the method:
(§11) I. In-vitro Determination of Affinity to CB1/CB2-Rezeptors
(§12) The in-vitro determination of the affinity of the inventive substituted azetidine compounds to CB1/CB2-Receptors is carried out as described in the publication of Ruth A. Ross, Heather C. Brockie et al., “Agonist-inverse agonist characterization at CB1 and CB2 cannabinoid receptors of L-759633, L759656 and AM630”, British Journal of Pharmacology, 126, 665-672, (1999). The respective parts of the descriptions are hereby incorporated by reference and form part of the present disclosure. The transfected human CB1 and CB2 receptor are obtained from Receptor Biology, Inc. The radioligand used for both receptors is [^3H]-CP55940.
(§13) The affinity of the inventive substituted azetidine compounds to CB1/CB2 receptors is determined as described above.

In data set [4] the target is T2, transfected human CB2 receptor (Homo sapiens, UniProt P34972).
T2 construct: purchased Receptor Biology, Inc
T2 sequence (P34972 whole entry): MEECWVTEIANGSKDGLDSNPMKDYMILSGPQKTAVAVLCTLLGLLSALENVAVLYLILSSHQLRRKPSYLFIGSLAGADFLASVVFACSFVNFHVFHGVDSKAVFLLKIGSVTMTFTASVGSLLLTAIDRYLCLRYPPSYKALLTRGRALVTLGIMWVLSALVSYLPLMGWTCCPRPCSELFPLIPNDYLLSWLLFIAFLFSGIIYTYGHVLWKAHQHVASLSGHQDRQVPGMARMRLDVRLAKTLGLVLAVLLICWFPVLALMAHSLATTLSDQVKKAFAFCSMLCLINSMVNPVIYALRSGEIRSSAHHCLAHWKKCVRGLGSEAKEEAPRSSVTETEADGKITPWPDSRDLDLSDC
The data set is described as follows: In-vitro determination of affinity to CB2 receptor, radioligand [^3H]-CP55940. It is filed as binding. The following applies: 10^−6 M. Here is the method:
as §11, §12, §13

A word on the melting point: it is the temperature, or range, at which the solid turns liquid. In general, inhibition refers to the relative decrease from the control value, in per cent. The term Ki denotes a dissociation constant, usually derived from enzyme kinetics or from competition with a known ligand.

Regarding `C[C@@H]1[C@@H](NS(=O)(=O)c2ccc(S(C)(=O)=O)cc2)CN1C(c1ccc(Cl)cc1)c1ccc(Cl)cc1` (relative stereo) [Example 14, N-{trans-1-[Bis-(4chloro-phenyl)methyl]-2-methyl-azetidin-3-yl}-4-methylsulfonyl-benzenesulfonamide], the melting point lay within 202 to 204 °C. Besides, in the data set on cannabinoid receptors [1], the “Agonistic effect A: Hot-Plate test” value is listed as 16, the “Agonistic effect B: Hypothermia” value was 0, the “Agonistic effect C: Catalepsy” value came to 0 and the “Agonistic effect D: Sedation” value was found to be 0. In the data set with cannabinoid receptors [2], the “Antagonistic Effect A: Hot-Plate test” value came out at 12, the “Antagonistic Effect B: Hypothermia” value is recorded as 71, the “Antagonistic Effect C: Catalepsy” value is listed as 14 and the “Antagonistic Effect D: Sedation” value is 9. Moreover, in data set [3], the inhibition at 1 µM came out at 82%.
Take `C[C@H]1[C@H](NS(=O)(=O)c2ccc(F)cc2)CN1C(c1ccc(Cl)cc1)c1ccc(Cl)cc1` [Example 5, (2S, 3R)-N-{1-[Bis-(4-chlorophenyl)methyl]-2-methylazetidin-3-yl}-4-fluoro-benzene sulfonamide]: the melting point is 154 to 157 °C. Moreover, in the data set with cannabinoid receptors [1], the “Agonistic effect A: Hot-Plate test” value came to 2, the “Agonistic effect B: Hypothermia” value was determined as 0, the “Agonistic effect C: Catalepsy” value amounted to 0 and the “Agonistic effect D: Sedation” value was 0. In data set [4], this molecule showed an inhibition at 1 µM of 4.6%. Also, in the data set with cannabinoid receptors [2], the “Antagonistic Effect A: Hot-Plate test” value is given as 77, the “Antagonistic Effect B: Hypothermia” value worked out at 100, the “Antagonistic Effect C: Catalepsy” value was 71 and the “Antagonistic Effect D: Sedation” value amounted to 57. The molecule also showed a Ki in data set [3] (radioligand [^3H]-CP55940) of 0.264 µM. Also, in data set [3], the inhibition at 1 µM came to 59%.
As for `C[C@H]1[C@H](NS(=O)(=O)c2cccs2)CN1C(c1ccc(Cl)cc1)c1ccc(Cl)cc1` [Example 6, Thiophene-2-sulfonic acid {(2S,3R)-1-[bis-(4-chloro-phenyl)-methyl]-2-methyl-azetidin-3-yl}-amide], the melting point was in the range of 72 to 76 °C. In the data set on cannabinoid receptors [1], the “Agonistic effect A: Hot-Plate test” value worked out at 0, the “Agonistic effect B: Hypothermia” value was found to be 0, the “Agonistic effect C: Catalepsy” value was 0 and the “Agonistic effect D: Sedation” value was determined as 0. In data set [4], this molecule returned an inhibition at 1 µM of 13.5%. Further, in the data set with cannabinoid receptors [2], the “Antagonistic Effect A: Hot-Plate test” value stood at 32, the “Antagonistic Effect B: Hypothermia” value came to 32, the “Antagonistic Effect C: Catalepsy” value is recorded as 51 and the “Antagonistic Effect D: Sedation” value was determined as 46. In addition, the inhibition at 1 µM in data set [3] is 66%.
